For 25 molecules, T/C results are on record in PubChem BioAssay AID330 (DTP/NCI, 2004).

Several values for one entry are separate records, joined by “and”; a condition that tells them apart may be missing. Identical values can stand only once. Inconclusive results and toxic doses are left out.

The test system of this assay is P388 leukemia ip, CD2F1 mice, survival T/C. In words: NCI In Vivo Anticancer Drug Screen. Data for tumor model P388 Leukemia (intraperitoneal) in CD2F1 (CDF1) mice. Particulars: endpoint: median survival time, higher = longer survival. Put shortly:
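Mice carrying the transplanted tumor received test compound or vehicle. Survival was recorded in each group, and the value is the treated-group measurement divided by that of the vehicle-treated control group.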

[1] abbreviates: dose: 50.0 mg/kg/injection, schedule: Q01DX009 (ip), vehicle: saline with Tween-80.
Setting [2] is: dose: 100.0 mg/kg/injection, schedule: Q01DX009 (ip), vehicle: saline with Tween-80.
Setting [3] is: dose: 50.0 mg/kg/injection, schedule: Q01DX009 (ip), vehicle: Klucel (hydroxypropylcellulose) (HPC).
[4] abbreviates: dose: 100.0 mg/kg/injection, schedule: Q01DX009 (ip), vehicle: Klucel (hydroxypropylcellulose) (HPC).
The mark [5] stands for this setting: dose: 200.0 mg/kg/injection, schedule: Q01DX009 (ip), vehicle: Klucel (hydroxypropylcellulose) (HPC).
The mark [6] stands for this setting: dose: 60.0 mg/kg/injection, schedule: Q01DX005 (ip), vehicle: Klucel (hydroxypropylcellulose) (HPC).
[7] abbreviates: dose: 120.0 mg/kg/injection, schedule: Q01DX005 (ip), vehicle: Klucel (hydroxypropylcellulose) (HPC).
Setting [8] is: dose: 240.0 mg/kg/injection, schedule: Q01DX005 (ip), vehicle: Klucel (hydroxypropylcellulose) (HPC).
The mark [9] stands for this setting: dose: 6.25 mg/kg/injection, schedule: Q01DX005 (ip), vehicle: saline with Tween-80.
Where [10] appears, read: dose: 12.5 mg/kg/injection, schedule: Q01DX005 (ip), vehicle: saline with Tween-80.

In the case of `O=C(OCC(Cl)(Cl)Cl)N1CCCCC1`, the T/C (dose: 25.0 mg/kg/injection, schedule: Q01DX009 (ip), vehicle: saline with Tween-80) was 98 % of control; the T/C under setting [1] was 92 % of control; the T/C under setting [2] was 102 % of control.
For the molecule `CC(SCCCCCCCCCCCCSC(C)C(=O)O)C(=O)O` (centres undefined), the T/C was 106 % of control (dose: 50.0 mg/kg/injection, schedule: Q01DX005 (ip), vehicle: saline with Tween-80); 97 % of control (dose: 100.0 mg/kg/injection, schedule: Q01DX005 (ip), vehicle: saline with Tween-80); 100 % of control (dose: 200.0 mg/kg/injection, schedule: Q01DX005 (ip), vehicle: saline with Tween-80).
`CCOC(=O)/[C](=N\N=P(N(C)C)(N(C)C)N(C)C)[Sb]([CH3])[CH3]`: the T/C by setting is: (dose: 12.5 mg/kg/injection, schedule: Q01DX001 (ip), vehicle: saline) 99 % of control; (dose: 25.0 mg/kg/injection, schedule: Q01DX001 (ip), vehicle: saline) 102 % of control.
`CCOC(=O)c1c(NC(=O)c2ccccc2)sc2c(=O)oc(-c3ccccc3)nc12`: the T/C by setting is: (dose: 50.0 mg/kg/injection, schedule: Q01DX005 (ip), vehicle: Klucel (hydroxypropylcellulose) (HPC)) 97 % of control; (dose: 100.0 mg/kg/injection, schedule: Q01DX005 (ip), vehicle: Klucel (hydroxypropylcellulose) (HPC)) 90 % of control; (dose: 200.0 mg/kg/injection, schedule: Q01DX005 (ip), vehicle: Klucel (hydroxypropylcellulose) (HPC)) 90 % of control.
With `O=C(O)CC1Sc2nc3c(n2C1(O)c1ccccc1)CCCC3` (centres undefined), the T/C under setting [3] was 109 % of control, the T/C under setting [4] is 100 % of control and the T/C under setting [5] is 98 % of control.
For `c1ccc(-c2csnn2)cc1`, the T/C (dose: 25.0 mg/kg/injection, schedule: Q04DX003 (ip), vehicle: saline with Tween-80) was 99 % of control; the T/C (dose: 50.0 mg/kg/injection, schedule: Q04DX003 (ip), vehicle: saline with Tween-80) is 100 % of control; the T/C (dose: 100.0 mg/kg/injection, schedule: Q04DX003 (ip), vehicle: saline with Tween-80) is 99 % of control; the T/C (dose: 200.0 mg/kg/injection, schedule: Q04DX003 (ip), vehicle: saline with Tween-80) is 106 % of control.
On to `Cc1cc(C)n(C(N)=NC(=O)c2ccccc2)n1`, for which the T/C by setting is: under setting [3], 104 % of control and 106 % of control; under setting [4], 100 % of control; under setting [5], 109 % of control.
`O=C1CCC(=O)N1CN(Cc1ccccc1)Cc1ccccc1`: the T/C is 100 % of control under setting [6], 97 % of control under setting [7] and 103 % of control under setting [8].
On the same counts, the results for `O=C(NC1C=Nc2ccccc2NC1=O)c1ccc(Cl)cc1` (centres undefined) are 91 % of control, 98 % of control and 91 % of control.
For `COc1cc(C(=O)NNC(=O)C2CCC(=O)N2Cc2ccccc2)cc(OC)c1OC` (centres undefined), the T/C is, setting by setting: (dose: 60.0 mg/kg/injection, schedule: Q01DX005 (ip), vehicle: saline with Tween-80) 89 % of control; (dose: 120.0 mg/kg/injection, schedule: Q01DX005 (ip), vehicle: saline with Tween-80) 90 % of control; (dose: 240.0 mg/kg/injection, schedule: Q01DX005 (ip), vehicle: saline with Tween-80) 87 % of control.
For `C=C(CBr)C(=O)OCC`, the T/C (dose: 7.5 mg/kg/injection, schedule: Q01DX005 (ip), vehicle: saline with Tween-80) is 103 % of control; the T/C (dose: 15.0 mg/kg/injection, schedule: Q01DX005 (ip), vehicle: saline with Tween-80) was 88 % of control; the T/C (dose: 30.0 mg/kg/injection, schedule: Q01DX005 (ip), vehicle: saline with Tween-80) was 103 % of control.
As for `CC1(C)SC(=O)N(CCC#CCCc2ccccc2)C1=O`, the T/C is 102 % of control under setting [6], 100 % of control under setting [7] and 92 % of control under setting [8].
Regarding `O=P1(C(Cl)(Cl)Cl)NNP(=O)(C(Cl)(Cl)Cl)NN1` (centres undefined), the T/C was 104 % of control under setting [6], 101 % of control under setting [7] and 107 % of control under setting [8].
With `COC(=O)C1=C/C=C\CN(CCC2OCC(CBr)O2)/C=C\1C(=O)OC` (centres undefined), the T/C was 95 % of control (dose: 100.0 mg/kg/injection, schedule: Q01DX001 (ip), vehicle: alcohol); 100 % of control (dose: 200.0 mg/kg/injection, schedule: Q01DX001 (ip), vehicle: alcohol); 100 % of control (dose: 400.0 mg/kg/injection, schedule: Q01DX001 (ip), vehicle: alcohol).
On to `O=C(O)CCC1(CCC(=O)O)OCCO1.[Ag]`, for which the T/C is, setting by setting: (dose: 9.5 mg/kg/injection, schedule: Q01DX009 (ip), vehicle: saline sonified) 100 % of control; (dose: 19.0 mg/kg/injection, schedule: Q01DX009 (ip), vehicle: saline sonified) 109 % of control; (dose: 38.0 mg/kg/injection, schedule: Q01DX009 (ip), vehicle: saline sonified) 86 % of control.
Regarding `Cc1cc(C)c(C#N)c(NN)n1`, the T/C is, setting by setting: under setting [9], 99 % of control; under setting [10], 103 % of control.
In the case of `C[n+]1c(-c2cc(Cl)cc(Cl)c2)c2cc(N)ccc2c2ccccc21`, the T/C was 120 % of control (dose: 3.13 mg/kg/injection, schedule: Q01DX009 (ip), vehicle: water); 122 % of control (dose: 6.25 mg/kg/injection, schedule: Q01DX009 (ip), vehicle: water); 114 % of control (dose: 12.5 mg/kg/injection, schedule: Q01DX009 (ip), vehicle: water); 102 % of control (dose: 25.0 mg/kg/injection, schedule: Q01DX009 (ip), vehicle: water).
`CCCCCCCCCCC(OC(C)=O)C1CCC(C2CCC(C(O)CCCCCCCCCCCCC3C=C(C)OC3=O)O2)O1` (centres undefined): the T/C runs as follows: (dose: 0.25 mg/kg/injection, schedule: Q01DX005 (ip), vehicle: water) 111 % of control; (dose: 0.5 mg/kg/injection, schedule: Q01DX005 (ip), vehicle: water) 124 % of control.
Regarding `C=C1CCC(Br)C2(C)CCC(C(C)(C)O)CC12` (centres undefined), the T/C is 100 % of control (dose: 2.0 mg/kg/injection, schedule: Q01DX009 (ip), vehicle: Klucel (hydroxypropylcellulose) (HPC)); 100 % of control (dose: 4.0 mg/kg/injection, schedule: Q01DX009 (ip), vehicle: Klucel (hydroxypropylcellulose) (HPC)); 98 % of control (dose: 8.0 mg/kg/injection, schedule: Q01DX009 (ip), vehicle: Klucel (hydroxypropylcellulose) (HPC)); 99 % of control (dose: 16.0 mg/kg/injection, schedule: Q01DX009 (ip), vehicle: Klucel (hydroxypropylcellulose) (HPC)).
Regarding `O=C1c2ccccc2C2NCCCN12` (centres undefined), the T/C (dose: 50.0 mg/kg/injection, schedule: Q01DX009 (ip), vehicle: suspension in saline) is 93 % of control; the T/C (dose: 100.0 mg/kg/injection, schedule: Q01DX009 (ip), vehicle: suspension in saline) was 102 % of control; the T/C (dose: 200.0 mg/kg/injection, schedule: Q01DX009 (ip), vehicle: suspension in saline) was 107 % of control; the T/C (dose: 400.0 mg/kg/injection, schedule: Q01DX009 (ip), vehicle: suspension in saline) is 111 % of control.
For `Cc1ccc(Cl)cc1NC(=O)N(C)CCOC(=O)Nc1cccc(Cl)c1`, the T/C was 93 % of control (dose: 60.0 mg/kg/injection, schedule: Q01DX005 (ip), vehicle: Klucel + Tween-80) and 92 % of control (dose: 120.0 mg/kg/injection, schedule: Q01DX005 (ip), vehicle: Klucel + Tween-80).
With `C1=CCOCOC1`, the T/C under setting [1] was 102 % of control and 109 % of control (2×); the T/C under setting [2] was 104 % of control and 109 % of control and 116 % of control; the T/C (dose: 200.0 mg/kg/injection, schedule: Q01DX009 (ip), vehicle: saline with Tween-80) is 111 % of control.
With `Clc1ccccc1C=Nc1ccc(N=Cc2ccccc2Cl)cc1`, the T/C was 97 % of control (dose: 100.0 mg/kg/injection, schedule: Q04DX002 (ip), vehicle: saline with Tween-80); 91 % of control (dose: 200.0 mg/kg/injection, schedule: Q04DX002 (ip), vehicle: saline with Tween-80); 92 % of control (dose: 400.0 mg/kg/injection, schedule: Q04DX002 (ip), vehicle: saline with Tween-80).
Regarding `CC1=C(C)SC(=S)NN1`, the T/C is 96 % of control (dose: 3.12 mg/kg/injection, schedule: Q01DX009 (ip), vehicle: saline); 100 % of control (dose: 6.25 mg/kg/injection, schedule: Q01DX009 (ip), vehicle: saline); 100 % of control (dose: 12.5 mg/kg/injection, schedule: Q01DX009 (ip), vehicle: saline).
On to `O/N=C\c1cc2ccccc2c[n+]1Cc1ccc2ccc3cccc4ccc1c2c34`, for which the T/C reads like this: under setting [9], 108 % of control; under setting [10], 108 % of control.
